Test results: patent US10696686B2, “Herbicidally active (alkynyl-phenyl)-substituted cyclic dione compounds and derivatives thereof” (Syngenta Limited, priority 2013, dated 2020)

What was measured:
Type in all cases: in vivo
[1] = system: Abutilon theophrasti (ABUTH); test: Biological Example 1B glasshouse assay, pre-emergence application; conditions: 250 g/ha, 13 days after application
Procedure, shortened: (§1)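 Sow in sand/sandy loam; grow 1 d (pre-emergence) or 8 d (post-emergence) at 24/16 °C, 14 h light, 65% humidity; spray aqueous dilution of acetone/water (50:50) formulation with 0.5% Tween 20; water twice daily; rate damage visually after 13 days.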

[2] = system: Setaria faberi (SETFA); test: as above; conditions: 250 g/ha, 13 days after application
Procedure, shortened: as §1

[3] = system: Zea mays (ZEAMX, corn, maize, e.g. volunteer corn); test: as above; conditions: 250 g/ha, 13 days after application
Procedure, shortened: as §1

[4] = system: grassy (in particular warm climate grassy) monocotyledonous weeds; test: Post-emergence herbicidal activity, summary statements on Biological Examples 1 to 3; conditions: applied at about 250 g/ha post-emergence; Biological Examples 1 and 2
Method: Seeds of a variety of test plant species were sown in standard soil ** in pots. After cultivation for one day (pre-emergence) or after 8 days cultivation (post-emergence) under controlled conditions in a glasshouse (at 24/16° C., day/night; 14 hours light; 65% humidity), the plants were sprayed with an aqueous spray solution derived from the formulation of the technical active ingredient (the test herbicide) in acetone/water (50:50) solution containing 0.5% Tween 20 (polyoxyethylene sorbitan monolaurate, CAS Reg. No. 9005-64-5). The test plants were then grown on under controlled conditions in a glasshouse (at 24/16° C., day/night; 14 hours light; 65% humidity) and watered twice daily. 13 Days after application of the test herbicide, for pre- and post-emergence, the test was evaluated visually for percentage phytotoxicity to each plant (where 100%=total damage to plant; 0%=no damage to plant). Generally, each test herbicide is only tested on 1 plant per plant species for each application rate tested and for each application timing. ** The “standard soil” in Biological Example 1 is usually a “sand” or “sandy loam” type of soil.
Seeds of a variety of monocotyledonous and dicotyledonous test plants are sown in standard soil in pots. The plants are cultivated for one day (for pre-emergence) or for about 12 days (range=10-13 days) (for post-emergence) under controlled conditions in a glasshouse (warm climate species at 24/18° C., cool climate species at 20/16° C., both at day/night; 16 hours light; 65% humidity). An “instant formulation”, known as the “IF50”, containing 50 g/litre (i.e. 5% w/v) of the “technical” (i.e. unformulated) active ingredient is prepared by dissolving the active ingredient in a mixture of organic solvents and emulsifier, details of which are provided in the Table below. […]
The test plants are then grown on, in a glasshouse (greenhouse) under controlled conditions (at either 24/18° C. or 20/16° C. (day/night) as mentioned above; 16 hours light; 65% humidity) and are watered twice daily. Either 14 or 15 days after application of the herbicide (14 or 15 DAA) (for post-emergence), or 20 days after application of the herbicide (20 DAA) (for pre-emergence), the test plants are evaluated visually, and an assessed percentage phytotoxicity score is given for each herbicidal application on each plant species (where 100%=total damage to plant; 0%=no damage to plant). […]

In the case of `C#CCC1CC(=O)C(c2c(F)cc(C#CC)cc2OC)C1=O` (stereo not shown) [Compound A8, 2-(2-fluoro-6-methoxy-4-prop-1-ynyl-phenyl)-4-prop-2-ynyl-cyclopentane-1,3-dione], the “Percentage phytotoxicity ABUTH” value [1] is reported as 0%, the “Percentage phytotoxicity SETFA” value [2] is reported as 90% and the “Percentage phytotoxicity ZEAMX” value [3] is reported as 100%. The “post-emergent herbicidal potency against grassy monocotyledonous weeds (in words)” value [4] was “potent post-emergent herbicides”.
